Results: patent publication US20250339426A1, “GCN2 MODULATOR FOR TREATING CANCER” (HIBERCELL, INC., priority 2022, published 2025)

Legend:
[1] = tested on: MFE280 (human endometrial cancer cells); experiment: In vivo tumor growth inhibition, MFE280 xenograft; parameters: species or system Athymic Nude-Foxn1nu mice
[2] = tested on: HIF1α; experiment: IHC of patient tumor biopsies, Phase 1a/b study; assay type: in vivo, human; details: colorectal and head and neck cancer patients, 10 mg and 20 mg QD, cycle 3 vs screening
Method: A first-in-human, multicenter, open-label, Phase 1a/b dose-escalation and dose-expansion study to establish the maximum tolerated dose (MTD), recommended phase II dose (RP2D), and evaluate the safety and tolerability of once daily (QD) oral dosing of HC-7366 potassium salt monohydrate in a dose-escalating fashion in subjects with advanced solid tumors was conducted. Up to 36 subjects were enrolled into the Phase 1a dose-escalation part of the study. Approximately 50% of all subjects enrolled in this study were subjects with squamous cell carcinoma of the head and neck (SCCHN), colorectal cancer (CRC), non-small cell lung cancer (NSCLC), and transitional cell carcinoma of the bladder (TCC). […] The study was conducted in the United States at approximately 3 to 5 sites. This Phase 1a/b study followed a traditional 3+3 design. The starting dose level was 10 mg QD, escalating to 20, 40, 75, 125, and 150 mg QD as safety allowed. All doses were administered in the fasting state with water at least 1 hour before food or at least 2 hours after food. […]
Tumor biopsies collected from colorectal cancer and head and neck cancer study patients at the time of screening and at cycle 3 were analyzed for HIF1α expression by IHC. […]

[3] = tested on: ASNS, PHGDH, PUMA, PSAT1, S100A8/A9 in MV4-11 tumors; experiment: Tumor IHC, MV4-11 tumors (venetoclax combination study); assay type: in vivo, BALB/c nude mice; details: end-of-study tumors
Method: Immunohistochemical analysis was carried out on tumors that were collected at the end of the study described in Example 6. Formalin-fixed paraffin-embedded samples were sectioned at 5 μm thickness and mounted on Superfrost Plus microscope slides (Fisher Scientific). All immunohistochemical (IHC) staining was performed on Bond Rx auto-stainer (Leica Biosystems) using the conventional TSA-amplified detection system. Primary antibodies used were as follows: a-ASNS (Cell Signaling Technology #92479), a-PUMA (Cell Signaling Technology #98672), a-PSAT1 (Proteintech #10501-1-AP), a-PHGDH (Proteintech #14719-1-AP), HIF-1a-Novus Biologicals NB 100-479, HIF-2a-Novus Biologicals NB100-122SS, and GLUT-1-EMB Biosciences 07-1401. TSA-conjugated Alexa488, Alexa 568 and Alexa647 fluorophores from Invitrogen (#B40953, #B40956, and #B40958) were used at 1:500 dilution. Slides were counterstained with DAPI and cover slipped using Mowiol anti-fade mounting media (Sigma #D2522).
Slides were imaged with Aperio Versa 200 (Leica Biosystems) whole-slide scanner using 10×/0.32NA objective, and the data were analyzed using custom-written macros in ImageJ/FIJI (NIH). Briefly, 150 μm of outer edges of the tumor sections and necrotic regions (determined by lack of 4′,6-diamidino-2-phenylindole (DAPI) signal or presence of condensed DNA) were eliminated from the analysis. Gaussian-blurred DAPI channel was used to measure the area of the tumor tissue. Scans of immune-staining were processed to remove background, then total intensity value above appropriate threshold levels was measured and normalized to tissue area. All graphing and statistics (one-way ANOVA and pair-wise comparisons) were performed using Prism GraphPad.
Slides were deparaffinized, rehydrated and heat mediated antigen retrieval was conducted with AR6 buffer (Akoya). Slides were blocked with Roche diagnostics antibody diluent (Fisher) and stained with primary antibodies for 1 hr at 110 rpm. After washing, horseradish peroxidase (HRP)-conjugated secondary antibodies were added for 10 mins at 110 rpm. After washing, OPAL detection dye (Akoya) was added for a static 10 min incubation. Antigen retrieval was performed post OPAL staining, followed by DAPI staining and slide covering. Multispectral images were captured on the Polaris imaging system (Akoya) and spectral unmixing, cell segmentation and phenotyping was performed using Inform Tissue Finder software (Akoya). Imaging data was converted into .csv files and imported into Flowjo for analysis of S100A8/A9 percent positive cells. Primary antibodies used were rabbit anti-human/mouse S100A8/A9 (Clone RM1038, Abcam ab288715, paired with Opal 570).
Immunohistochemical analysis was performed on the tumors according to the procedures described in Example 7.

[4] = HC-7366 3 mg/kg, alone or with venetoclax

CNC(=O)c1ncn2cc(-c3c(F)ccc(NS(=O)(=O)c4cc(Cl)cnc4OC)c3F)ncc12 [HC-7366, 6-(3-((5-chloro-2-methoxypyridine)-3-sulfonamido)-2,6-difluorophenyl)-N-methylimidazo[1,5-a]pyrazine-1-carboxamide]
tumor growth inhibition ([1]; HC-7366 0.5 mg/kg twice daily oral): 45% | tumor growth inhibition ([1]; HC-7366 2 mg/kg twice daily oral): 53% | HIF1α expression in tumor biopsies [2]: Profound inhibition | PSAT1 levels [3]: did not change | ASNS by IHC [3, 4]: potent activation | PHGDH by IHC [3, 4]: potent activation | PUMA by IHC [3, 4]: potent activation | S100A8/A9 levels ([3]; single agents and combination): significantly reduced
